Experimental data from patent publication US6251885A, “Cytotrienins, process for preparing the same and anti-tumor agent” (The Institute of Physical and Chemical Research, priority 1996, dated 2001).
Converted amounts (≈) assume the structure as drawn.

What was measured:
[1] = test system: Pyricularia oryzae; experiment: microbe, parasite or virus in culture; format: cell-based; conditions: for minimum inhibitory concentration (MIC): Sabouraud's medium, 28° C., 2 days
[2] = test system: Escherichia coli BE1186; experiment: Antimicrobial activity, agar dilution method; format: cell-based; conditions: bouillon medium, 37° C., 1 day
Protocol: Antimicrobial activity of cytotrienins I, II, III and IV
Cytotrienins I, II, III and IV were assayed by the agar dilution method in bouillon medium (examined microorganism; bacteria, 37° C., 1 day) and Sabouraud's medium (examined microorganism: fungus, 28° C., 2 days).

[3] = test system: Pseudomonas aeruginosa; experiment: Antimicrobial activity, agar dilution method; format: cell-based; conditions: bouillon medium, 37° C., 1 day
[4] = test system: v-src^ts -NRK cell; experiment: Inhibition of v-src^ts-NRK cell cycle (progress of S phase), flow cytometry; also: key: +: weakly inhibits the progress of S; + +: inhibits the progress of S phase; + + +: strongly inhibits the progress of S phase; format: cell-based, rat; conditions: downshift 39° C. to 32° C., 18 hours
Protocol: Inhibitory activity for cell cycle of cytotrienins I, II, III and IV.
Generally cell divides and proliferates in accordance with a cell cycle including a series of phases such as M phase, G1 phase, S phase and G2 phase. If something happens in the control mechanism of cell cycle, homeostasis breaks and possibility of suffering from cancer or immune disease would increase.
When v--src^ts -NRK cell is cultured at non-permissive temperature (39° C.), the cell cycle stops at G0/G1 phase and if the temperature is downshifted to permissive temperature (32° C.), the cell advances to S phase and then repeats the proliferation. A series of diluted cytotrienin I, II, III and IV were added simlutaneously with the downshift and, after 18 hours, the advancement of cell cycle to S phase was analyzed by flow cytometry.

[5] = test system: Chlorella vulgaris; experiment: Antimicrobial activity, agar dilution method; format: cell-based
[6] = test system: v-src^ts -NRK cell; experiment: Activity to revert v-src^ts-NRK cell to normal morphology; format: cell-based, rat; conditions: 32° C., 18 hours; also: key: +: weakly induce normal morphology; + +: induce normal morphology; + + +: highly induce normal morphology
Protocol: Activity of cytotrienins I, II, III and IV to revert v-src^ts -NRK cell (rat renal cell infected with temperature-sensitive Rous sarcoma virus) to normal morphology.
Many oncogenes encode tyrosine kinase. Among them, v-src is believed to encode non-receptor type tyrosine kinase to induce the cell to transformed morphology.
V-src^ts -NRK cell is typically cultured on Eagle's MEM medium containing 10% of bovine serum at 32° C. in a culture chamber which is saturated with 5% of carbon dioxide and steam. At the permissive temperature (32° C.), a series of diluted cytotrienin I, II, III and IV were added. After 18 hours, inducibility to normal morphology was analyzed.

[7] = test system: Candida albicans; experiment: Antimicrobial activity, agar dilution method; format: cell-based; conditions: Sabouraud's medium, 28° C., 2 days
[8] = test system: K-562; experiment: Inhibition of proliferation of cancer cells (MTT), K-562; format: cell-based; conditions: 17 hours; for Inhibitory effect on proliferation, IC50 value (concentration to inhibit 50% of proliferation): K-562 (human chronic myelogenic leukemia cells)
Protocol: (§1) Inhibitory activity for proliferation of cancer cells of cytotrienins I, II, III and IV.
(§2) Human leukocyte cells K562 and HL-60 were incubated on PRM 1640 medium (comprising 10% of bovine serum) in a culture chamber saturated with 5% carbon dioxide and steam. To the medium was added a series of diluted cytotrienin I, II, III and IV. After 17 hours, MTT reagent was added and growth was measured.
K562: Human chronic myelogenic leukemia cells

[9] = test system: Staphylococcus aureus; experiment: Antimicrobial activity, agar dilution method; format: cell-based; conditions: bouillon medium, 37° C., 1 day
[10] = test system: HL-60; experiment: Inhibition of proliferation of cancer cells (MTT), HL-60; format: cell-based; conditions: HL-60 (human acute promyelogenic leukemia cells), 17 hours
Protocol: as §1, §2
HL-60: Human acute promyelogenic leukemia cells

[11] = 48 h, read-out: minimum inhibitory concentration (MIC)
[12] = 24 h, read-out: minimum inhibitory concentration (MIC)

Row | Structure (SMILES) | minimum inhibitory concentration (MIC) [1] [mg/L] | minimum inhibitory concentration (MIC) [2] [mg/L] | minimum inhibitory concentration (MIC) [3] [mg/L] | Inhibition effect on v-src^ts -NRK cell cycle ([4]; 0.03 μg/ml) | Inhibition effect on v-src^ts -NRK cell cycle ([4]; 0.1 μg/ml) | Inhibition effect on v-src^ts -NRK cell cycle ([4]; 0.3 μg/ml) | Inhibition effect on v-src^ts -NRK cell cycle ([4]; 1 μg/ml) | Inhibition effect on v-src^ts -NRK cell cycle ([4]; 3 μg/ml) | minimum inhibitory concentration (MIC) [5] [mg/L] | reversion activity to induce v-src^ts -NRK cell to normal morphology ([6]; 0.1 μg/ml) | reversion activity to induce v-src^ts -NRK cell to normal morphology ([6]; 1 μg/ml) | reversion activity to induce v-src^ts -NRK cell to normal morphology ([6]; 3 μg/ml) | reversion activity to induce v-src^ts -NRK cell to normal morphology ([6]; 10 μg/ml) | minimum inhibitory concentration (MIC) [7] [mg/L] | Inhibitory effect on proliferation, IC50 value (concentration to inhibit 50% of proliferation) [8] [mg/L] | minimum inhibitory concentration (MIC) [9] [mg/L] | Inhibitory effect on proliferation, IC50 value (concentration to inhibit 50% of proliferation) [10] [mg/L] | reversion activity to induce v-src^ts -NRK cell to normal morphology ([6]; 0.3 μg/ml) | also measured
1 | COC1C=CC=CC=CCC(OC(=O)C2(NC(=O)C3CCCCC3)CC2)C(C)C(O)C(C)=CCCC2=CC(=O)C=C(NC(=O)C1)C2=O (centres unmarked) [Cytotrienin IV, cytotrienin IV] | 12.5 (≈ 19.3 µM) | > 100 | > 100 | + + | + + + | + + + | + + + | + + + | > 100 | + + | + + + | + + + | + + + | > 100 | 0.001 | > 100 | 0.001 |  | 
2 | COC1C=CC=CC=CCC(OC(=O)C2(NC(=O)C3CCCCC3)CC2)C(C)C(O)C(C)=CCCc2cc(O)cc(c2O)NC(=O)C1 (centres unmarked) [Cytotrienin II, cytotrienin II] | 12.5 (≈ 19.2 µM) | > 100 | > 100 | + | + + | + + + | + + + | + + + | > 100 | + | + + + | + + + | + + + | > 100 | 0.005 | > 100 | 0.005 | + | 
3 | COC1C=CC=CC=CCC(OC(=O)C2(NC(=O)C3=CCCCC3)CC2)C(C)C(O)C(C)=CCCc2cc(O)cc(c2O)NC(=O)C1 (centres unmarked) [Cytotrienin I, cytotrienin I] |  |  |  | + | + + | + + + | + + + | + + + |  | + | + + + | + + + | + + + |  |  |  |  | + + | MIC [1, 11]: 12.5 mg/L (≈ 19.3 µM); MIC [2, 12]: > 100 mg/L; MIC [3, 12]: > 100 mg/L; MIC ([5]; read-out: minimum inhibitory concentration (MIC)): > 100 mg/L; MIC [7, 11]: > 100 mg/L; IC50 ([8]; K562, K-562 (human chronic myelogenic leukemia cells), read-out: Inhibitory effect on proliferation, IC50 value (concentration to inhibit 50% of proliferation)): 0.02 mg/L (≈ 0.0308 µM); MIC [9, 12]: > 100 mg/L; IC50 ([10]; read-out: Inhibitory effect on proliferation, IC50 value (concentration to inhibit 50% of proliferation)): 0.005 mg/L (≈ 0.00771 µM)
4 | COC1C=CC=CC=CCC(OC(=O)C2(NC(=O)C3=CCCCC3)CC2)C(C)C(O)C(C)=CCCC2=CC(=O)C=C(NC(=O)C1)C2=O (centres unmarked) [Cytotrienin III, cytotrienin III] | 12.5 (≈ 19.3 µM) | > 100 | > 100 | + + | + + + | + + + | + + + | + + + | > 100 | + + | + + + | + + + | + + + | > 100 | 0.005 | > 100 | 0.001 | + + + | 
